In brackets after ≈: the same amount, converted by molar mass.
Experiments:
Assay type in all cases: cell-based
[1] = test system: Staphylococcus aureus ATCC29213; assay: MIC, microbroth dilution (NCCLS); conditions: rifS strain, Cation-Adjusted Mueller-Hinton Broth, 37° C., read-out: Antimicrobial activity (MIC)
[2] = test system: Staphylococcus aureus ATCC29213 rpoB^D417Y; assay: microbe, parasite or virus in culture; conditions: ATCC29213, read-out: Antimicrobial activity (MIC)
Procedure: (§1) Representative compounds were assayed for antimicrobial activity as follows: Minimum Inhibitory Concentrations (“MICs”) were determined by the microbroth dilution method as per NCCLS guidelines (National Committee for Clinical Laboratory Standards. 2000. Methods for dilution antimicrobial susceptibility tests for bacteria that grow aerobically, 5th ed. M7-A5. National Committee for Clinical Laboratory Standards, Wayne, Pa.), except that all growth incubations were conducted at 37° C. Bacterial cultures were tested in the following bacteriological media: S. aureus, S. epidermidis, and E. coli in Cation-Adjusted Mueller-Hinton Broth, S. pneumoniae in THY Broth supplemented with 1 mg/mL catalase under 5% CO2 atmosphere, S. pyogenes in THY Broth, E. faecalis in BHI Broth, H. influenzae in BHI Broth supplemented with 0.75 μL of 1 mg/mL NAD and 150 μL of 1 mg/ml hematin per 5 mL, and M. smegmatis in Middlebrook Broth plus ADC Enrichment.
(§2) S. aureus ATCC 29213 RpoB^H418Y is a rifampin-resistant strain with a mutation in RNA polymerase, the biological target of rifamycin antibiotics. […] S. aureus EN1252a gyrA^S84L grlA^S80F is a quinolone-resistant strain due to double mutations to DNA gyrase and topoisomerase IV, the two biological targets for quinolone antibiotics.

[3] = test system: Staphylococcus aureus ATCC29213 rpoB^H418Y; assay: microbe, parasite or virus in culture; conditions: ATCC29213, read-out: Antimicrobial activity (MIC)
Procedure: as §1, §2

[4] = test system: Staphylococcus aureus EN1252a gyrA^S84L grlA^S80F; assay: microbe, parasite or virus in culture; conditions: read-out: Antimicrobial activity (MIC)
Procedure: as §1, §2

[5] = test system: Staphylococcus epidermidis ATCC12228; assay: MIC, microbroth dilution (NCCLS); conditions: rifS strain, Cation-Adjusted Mueller-Hinton Broth, 37° C., read-out: Antimicrobial activity (MIC)
[6] = test system: Streptococcus pneumoniae ATCC6303; assay: MIC, microbroth dilution (NCCLS); conditions: rifS strain, THY Broth with 1 mg/mL catalase, 5% CO2, 37° C., read-out: Antimicrobial activity (MIC)
[7] = test system: Streptococcus pyogenes ATCC19615; assay: MIC, microbroth dilution (NCCLS); conditions: rifS strain, THY Broth, 37° C., read-out: Antimicrobial activity (MIC)
[8] = test system: Enterococcus faecalis ATCC29212; assay: MIC, microbroth dilution (NCCLS); conditions: rifS strain, BHI Broth, 37° C., read-out: Antimicrobial activity (MIC)
[9] = test system: Haemophilus influenzae ATCC10211; assay: MIC, microbroth dilution (NCCLS); conditions: rifS strain, BHI Broth with NAD and hematin, 37° C., read-out: Antimicrobial activity (MIC)
[10] = test system: Escherichia coli ATCC25922; assay: MIC, microbroth dilution (NCCLS); conditions: rifS strain, Cation-Adjusted Mueller-Hinton Broth, 37° C., read-out: Antimicrobial activity (MIC)
[11] = test system: Mycobacterium smegmatis ATCC700084; assay: MIC, microbroth dilution (NCCLS); conditions: Mycolicibacterium smegmatis, rifS strain, Middlebrook Broth plus ADC Enrichment, 37° C., read-out: Antimicrobial activity (MIC)

| SMILES | MIC [1] | MIC [2] | MIC [3] | MIC [4] | MIC [5] | MIC [6] | MIC [7] | MIC [8] | MIC [9] | MIC [10] | MIC [11] |
| --- | --- | --- | --- | --- | --- | --- | --- | --- | --- | --- | --- |
| COc1c(N2CCC(C3(N(C)C4CCN(C5=C6NC(=O)/C(C)=C\C=C\[C@H](C)[C@H](O)[C@@H](C)[C@@H](O)[C@@H](C)[C@H](OC(C)=O)[C@H](C)[C@@H](OC)/C=C/O[C@@]7(C)Oc8c(C)c(O)c(c(c8C7=O)C5=O)C6=O)CC4)CC3)C2)c(F)cc2c(=O)c(C(=O)O)cn(C3CC3)c12 (mixture of isomers) [Example 41] | 0.004 to 0.5 µg/mL (≈ 0.00335 to 0.419 µM) | 0.06 to 32 µg/mL (≈ 0.0503 to 26.8 µM) | 0.06 to 16 µg/mL (≈ 0.0503 to 13.4 µM) | 0.004 to 0.5 µg/mL (≈ 0.00335 to 0.419 µM) | 0.008 to 0.063 µg/mL (≈ 0.00671 to 0.0528 µM) | 0.008 to 0.125 µg/mL (≈ 0.00671 to 0.105 µM) | 0.008 to 0.063 µg/mL (≈ 0.00671 to 0.0528 µM) | 2 to 32 µg/mL (≈ 1.68 to 26.8 µM) | 0.125 to 2 µg/mL (≈ 0.105 to 1.68 µM) | 0.125 to 8 µg/mL (≈ 0.105 to 6.71 µM) | 0.5 to 64 µg/mL |
| CO[C@H]1/C=C/O[C@@]2(C)Oc3c(C)c(O)c4c(c3C2=O)C(=O)C(N2CC(C(=O)NC3CCN(c5c(F)cc6c(=O)c(C(=O)O)cn(C7CC7)c6c5Cl)C3)C2)=C(NC(=O)/C(C)=C\C=C\[C@H](C)[C@H](O)[C@@H](C)[C@@H](O)[C@@H](C)[C@H](OC(C)=O)[C@@H]1C)C4=O (mixture of isomers) [Example 43, (R/S)-3-{3-[1-(3-Carboxy-8-chloro-1-cyclopropyl-6-fluoro-4-oxo-1,4-dihydroquinolin-7-yl)-pyrrolidin-3-ylcarbamoyl]-azetidin-1-yl}rifamycin S] | 0.004 to 0.5 µg/mL (≈ 0.0035 to 0.438 µM) | 0.06 to 32 µg/mL (≈ 0.0525 to 28 µM) | 0.06 to 16 µg/mL (≈ 0.0525 to 14 µM) | 0.004 to 0.5 µg/mL (≈ 0.0035 to 0.438 µM) | 0.008 to 0.063 µg/mL (≈ 0.007 to 0.0551 µM) | 0.008 to 0.125 µg/mL (≈ 0.007 to 0.109 µM) | 0.008 to 0.063 µg/mL (≈ 0.007 to 0.0551 µM) | 2 to 32 µg/mL (≈ 1.75 to 28 µM) | 0.125 to 2 µg/mL (≈ 0.109 to 1.75 µM) | 0.125 to 8 µg/mL (≈ 0.109 to 7 µM) | 0.5 to 64 µg/mL |
| COc1c(N2CCC(NC(=O)C3CN(C4=C5NC(=O)/C(C)=C\C=C\[C@H](C)[C@H](O)[C@@H](C)[C@@H](O)[C@@H](C)[C@H](OC(C)=O)[C@H](C)[C@@H](OC)/C=C/O[C@@]6(C)Oc7c(C)c(O)c(c(c7C6=O)C4=O)C5=O)C3)C2)c(F)cc2c(=O)c(C(=O)O)cn(C3CC3)c12 (mixture of isomers) [Example 44, (R/S)-3-{3-[1-(3-Carboxy-1-cyclopropyl-6-fluoro-8-methoxy-4-oxo-1,4-dihydroquinolin-7-yl)-pyrrolidin-3-ylcarbamoyl]-azetidin-1-yl}rifamycin S] | 0.004 to 0.5 µg/mL (≈ 0.00351 to 0.439 µM) | 0.06 to 32 µg/mL (≈ 0.0527 to 28.1 µM) | 0.06 to 16 µg/mL (≈ 0.0527 to 14.1 µM) | 0.004 to 0.5 µg/mL (≈ 0.00351 to 0.439 µM) | 0.008 to 0.063 µg/mL (≈ 0.00703 to 0.0554 µM) | 0.008 to 0.125 µg/mL (≈ 0.00703 to 0.11 µM) | 0.008 to 0.063 µg/mL (≈ 0.00703 to 0.0554 µM) | 2 to 32 µg/mL (≈ 1.76 to 28.1 µM) | 0.125 to 2 µg/mL (≈ 0.11 to 1.76 µM) | 0.125 to 8 µg/mL (≈ 0.11 to 7.03 µM) | 0.5 to 64 µg/mL |
| CO[C@H]1/C=C/O[C@@]2(C)Oc3c(C)c(O)c4c(c3C2=O)C(=O)C(N2CCC(C(=O)NC3CCN(c5c(F)cc6c(=O)c(C(=O)O)cn(C7CC7)c6c5Cl)C3)CC2)=C(NC(=O)/C(C)=C\C=C\[C@H](C)[C@H](O)[C@@H](C)[C@@H](O)[C@@H](C)[C@H](OC(C)=O)[C@@H]1C)C4=O (mixture of isomers) [Example 49, (R/S)-3-{4-[1-(3-Carboxy-8-chloro-1-cyclopropyl-6-fluoro-4-oxo-1,4-dihydroquinolin-7-yl)-pyrrolidin-3-ylcarbamoyl]-piperidin-1-yl}rifamycin S] | 0.004 to 0.5 µg/mL (≈ 0.00342 to 0.427 µM) | 0.06 to 32 µg/mL (≈ 0.0513 to 27.3 µM) | 0.06 to 16 µg/mL (≈ 0.0513 to 13.7 µM) | 0.004 to 0.5 µg/mL (≈ 0.00342 to 0.427 µM) | 0.008 to 0.063 µg/mL (≈ 0.00683 to 0.0538 µM) | 0.008 to 0.125 µg/mL (≈ 0.00683 to 0.107 µM) | 0.008 to 0.063 µg/mL (≈ 0.00683 to 0.0538 µM) | 2 to 32 µg/mL (≈ 1.71 to 27.3 µM) | 0.125 to 2 µg/mL (≈ 0.107 to 1.71 µM) | 0.125 to 8 µg/mL (≈ 0.107 to 6.83 µM) | 0.5 to 64 µg/mL |
| COc1c(N2CCC(NC(=O)C3CCN(C4=C5NC(=O)/C(C)=C\C=C\[C@H](C)[C@H](O)[C@@H](C)[C@@H](O)[C@@H](C)[C@H](OC(C)=O)[C@H](C)[C@@H](OC)/C=C/O[C@@]6(C)Oc7c(C)c(O)c(c(c7C6=O)C4=O)C5=O)CC3)C2)c(F)cc2c(=O)c(C(=O)O)cn(C3CC3)c12 (mixture of isomers) [Example 50, (R/S)-3-{4-[1-(3-Carboxy-1-cyclopropyl-6-fluoro-8-methoxy-4-oxo-1,4-dihydroquinolin-7-yl)-pyrrolidin-3-ylcarbamoyl]-piperidin-1-yl}rifamycin S] | 0.004 to 0.5 µg/mL (≈ 0.00343 to 0.429 µM) | 0.06 to 32 µg/mL (≈ 0.0514 to 27.4 µM) | 0.06 to 16 µg/mL (≈ 0.0514 to 13.7 µM) | 0.004 to 0.5 µg/mL (≈ 0.00343 to 0.429 µM) | 0.008 to 0.063 µg/mL (≈ 0.00686 to 0.054 µM) | 0.008 to 0.125 µg/mL (≈ 0.00686 to 0.107 µM) | 0.008 to 0.063 µg/mL (≈ 0.00686 to 0.054 µM) | 2 to 32 µg/mL (≈ 1.71 to 27.4 µM) | 0.125 to 2 µg/mL (≈ 0.107 to 1.71 µM) | 0.125 to 8 µg/mL (≈ 0.107 to 6.86 µM) | 0.5 to 64 µg/mL |

Reference: patent publication US7247634B2, “Rifamycin derivatives effective against drug-resistant microbes” (Cumbre Pharmaceuticals Inc., priority 2004, dated 2007)
